Data on three compounds can be found in BindingDB's records for doi:10.1016/j.bmc.2006.06.019 (University of Tennessee Health Science Center, 2006).

Broadly, the Ki is the equilibrium dissociation constant of an inhibitor or competing ligand from its target. A low value points to a stronger hold on the target.

In the test the target is T1, Androgen receptor (Rattus norvegicus, UniProt P15207).
T1 sequence (P15207 whole entry): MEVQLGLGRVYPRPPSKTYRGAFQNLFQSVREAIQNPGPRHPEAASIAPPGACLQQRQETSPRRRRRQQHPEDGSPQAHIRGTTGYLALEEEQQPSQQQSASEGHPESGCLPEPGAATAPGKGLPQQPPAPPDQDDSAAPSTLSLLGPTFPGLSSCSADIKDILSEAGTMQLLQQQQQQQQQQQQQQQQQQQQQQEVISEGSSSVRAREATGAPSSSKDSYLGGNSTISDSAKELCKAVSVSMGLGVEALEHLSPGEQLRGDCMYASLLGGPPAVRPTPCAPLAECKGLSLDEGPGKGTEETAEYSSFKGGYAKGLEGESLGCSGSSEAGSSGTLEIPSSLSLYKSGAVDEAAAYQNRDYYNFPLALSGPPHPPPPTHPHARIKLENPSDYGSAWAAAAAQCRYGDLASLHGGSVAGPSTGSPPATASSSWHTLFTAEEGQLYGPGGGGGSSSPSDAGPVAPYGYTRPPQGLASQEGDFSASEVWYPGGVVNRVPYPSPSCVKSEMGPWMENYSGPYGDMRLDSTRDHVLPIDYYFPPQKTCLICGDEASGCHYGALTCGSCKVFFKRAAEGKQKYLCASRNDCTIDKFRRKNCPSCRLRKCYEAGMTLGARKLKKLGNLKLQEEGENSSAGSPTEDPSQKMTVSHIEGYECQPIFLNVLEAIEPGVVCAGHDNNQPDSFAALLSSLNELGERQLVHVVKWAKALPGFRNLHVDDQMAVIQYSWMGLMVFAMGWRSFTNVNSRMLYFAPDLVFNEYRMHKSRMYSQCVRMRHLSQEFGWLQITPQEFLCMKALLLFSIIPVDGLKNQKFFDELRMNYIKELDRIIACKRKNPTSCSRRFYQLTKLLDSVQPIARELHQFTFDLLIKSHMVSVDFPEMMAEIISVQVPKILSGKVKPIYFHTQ
Description: Competitive Radioligand Displacement Assay. Conditions: pH 7.4; 4 °C. The protocol:
The Ki values were determined by the application of the Cheng-Prusoff equation: Ki = (IC50 x Kd)/(Kd+[L]) where [L] is the concentration of [3H]MIB (1 nM ) and Kd is the dissociation constant of the [3H]MIB determined in the saturation analysis (Kd=0.19 nM for MIB).
Background: Loss of bound radioactivity is the signal in a displacement assay; it reports binding, not function.
Compound `C[C@@](O)(COc1ccc(N=C=S)cc1)C(=O)Nc1ccc([N+](=O)[O-])c(C(F)(F)F)c1` [(2R)-2-hydroxy-3-(4-isothiocyanatophenoxy)-2-methyl-N-[4-nitro-3-(trifluoromethyl)phenyl]propanamide] gave a Ki of 36.2 nM.
Take `C[C@](O)(CSc1ccc(N=C=S)cc1)C(=O)Nc1ccc([N+](=O)[O-])c(C(F)(F)F)c1` [(2R)-2-hydroxy-3-[(4-isothiocyanatophenyl)sulfanyl]-2-methyl-N-[4-nitro-3-(trifluoromethyl)phenyl]propanamide]: the Ki worked out at 54.8 nM. Compared with the last compound, the Ki is about 1.5-fold higher.
Next, `C[C@](O)(COc1ccc(N=C=S)c(F)c1)C(=O)Nc1ccc([N+](=O)[O-])c(C(F)(F)F)c1` [(2S)-3-(3-fluoro-4-isothiocyanatophenoxy)-2-hydroxy-2-methyl-N-[4-nitro-3-(trifluoromethyl)phenyl]propanamide]: 12.6 nM.
